ChEMBL document CHEMBL2311447, “Cynaropicrin from Cynara scolymus L. suppresses photoaging of skin by inhibiting the transcription activity of nuclear factor-kappa B” (2013)
The source made the active and inactive calls. The rule behind the calls is not given here.

Experiments:
Mus musculus [1] = test: Antiphotoaging activity in DBA-2 mouse assessed as reduction of UVB-induced epidermal hyperproliferation in ear tissue at 92.4 mg/kg, po as powder qd for 12 days relative to untreated control; format: functional, organism-based; design: dose 92.4 mg/kg
[2] = target: Transcription factor p65 (Homo sapiens) (UniProt Q04206); test: Inhibition of NF-kappaB-65 (unknown origin)-mediated transactivation in TNFalpha-stimulated HEK293 cells assessed inhibition of I-kappaB phosphorylation and degradation after 24 hrs; format: cell-based
Mus musculus [3] = test: Antiphotoaging activity in DBA-2 mouse assessed as reduction of UVB-induced melanocyte proliferation in ear tissue at 92.4 to 462.2 mg/kg, po as powder qd for 12 days relative to untreated control; format: functional; conditions: dose mg/kg 92.4-462.2
Mus musculus [4] = test: Antiphotoaging activity in DBA-2 mouse assessed as reduction of UVB-induced epidermal hyperproliferation in ear tissue administered as po as powder qd for 12 days relative to untreated control; format: functional, organism-based
Mus musculus [5] = test: Antiphotoaging activity in DBA-2 mouse assessed as reduction of UVB-induced PCNA-positive cell in ear tissue at 92.4 to 462.2 mg/kg, po as powder qd for 12 days; format: functional, organism-based
[6] = target: Transcription factor p65 (Homo sapiens) (UniProt Q04206); test: Inhibition of NF-kappaB-65 (unknown origin) expressed in TNFalpha-stimulated HEK293 cells assessed inhibition of nuclear translocation at 8 uM after 3 hrs; format: cell-based
HEK293 = test: Inhibition of NF-kappaB (unknown origin) expressed in TNFalpha-stimulated HEK293 cells expressing pGL3-Luc assessed inhibition of transactivation activity after 24 hrs by luciferase assay; format: cell-based; conditions: Homo sapiens
[7] = target: Transcription factor p65 (Homo sapiens) (UniProt Q04206); test: Inhibition of NF-kappaB p65 expressed in human keratinocytes co-cultured with human epidermal melanocytes assessed as inhibition of melanocyte proliferation at 4 uM by WST-1 assay; format: cell-based
[8] = target: Transcription factor p65 (Homo sapiens) (UniProt Q04206); test: Inhibition of NF-kappaB-65 (unknown origin) expressed in human keratinocytes assessed as inhibition of bFGF production at 4 uM by EIA; format: cell-based
[9] = target: Transcription factor p65 (Homo sapiens) (UniProt Q04206); test: Inhibition of NF-kappaB-65 (unknown origin) expressed in human dermal fibroblasts assessed as inhibition of MMP1 production at 4 uM by EIA
Mus musculus [10] = test: Antiphotoaging activity in DBA-2 mouse assessed as reduction of UVB-induced epidermal hyperproliferation in ear tissue at 462.2 mg/kg, po as powder qd for 12 days relative to untreated control; format: functional

Transcription factor p65 (Homo sapiens), sequence (Q04206 whole entry): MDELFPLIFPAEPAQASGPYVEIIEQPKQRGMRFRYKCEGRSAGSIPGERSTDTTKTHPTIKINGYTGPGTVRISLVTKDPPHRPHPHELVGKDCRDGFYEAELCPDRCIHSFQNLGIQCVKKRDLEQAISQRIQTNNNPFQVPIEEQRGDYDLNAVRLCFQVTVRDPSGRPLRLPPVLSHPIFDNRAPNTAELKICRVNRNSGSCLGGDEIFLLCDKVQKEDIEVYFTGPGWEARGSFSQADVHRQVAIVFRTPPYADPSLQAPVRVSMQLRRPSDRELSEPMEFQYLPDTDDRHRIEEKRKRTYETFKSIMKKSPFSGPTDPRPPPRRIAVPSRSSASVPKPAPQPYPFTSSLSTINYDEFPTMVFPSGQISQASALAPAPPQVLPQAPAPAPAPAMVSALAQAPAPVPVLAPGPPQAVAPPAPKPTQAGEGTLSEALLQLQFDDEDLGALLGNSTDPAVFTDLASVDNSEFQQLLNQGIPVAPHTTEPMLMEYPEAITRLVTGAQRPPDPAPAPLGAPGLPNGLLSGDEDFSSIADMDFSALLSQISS

## C=C(CO)C(=O)O[C@H]1CC(=C)[C@@H]2C[C@H](O)C(=C)[C@@H]2[C@H]2OC(=O)C(=C)[C@@H]21 [CYNAROPICRIN]
Mus musculus [1]
  Activity: Active
[2]
  inhibition: Dose-dependent effect
Mus musculus [3]
  fold change (FC): 4.3
Mus musculus [4]
  Activity: Dose-dependent effect
Mus musculus [5]
  Activity: inactive
[6]
  inhibition: Active
HEK293
  inhibition: Dose-dependent effect
[7]
  inhibition: Active
[8]
  inhibition: Active
[9]
  inhibition: Active
Mus musculus [10]
  fold change (FC): 1.7
